The test system of test [1] is H417 cell line (small cell lung cancer cell line of a mutation RONΔ155 type). Kind of test: Cell killing efficacy in small cell lung cancer cell line (PI staining, FACS). Format: cell-based. To be noted: H417 cells (mRONΔ155), 1 μM, 72 hours, propidium iodide, FIG. 1. The protocol: The H417 cell line, which is a small cell lung cancer cell line of a mutation RONΔ155 type, was counted, and 2×10^5 cells were seeded in a 60 mm dish, respectively, and 24 hours later, treated with 1 μM of each of the compounds synthesized in Example 1 (WM-S1-030), Example 2, Example 3, Example 4, and Example 5 for 72 hours. As a positive control, a known RON inhibitor, BMS-777607 compound (1 μM), was used. BMS-777607 is N-{4-[(2-amino-3-chloro-4-pyridinyl)oxy]-3-fluorophenyl}-4-ethoxy-1-(4-fluorophenyl)-2-oxo-1,2-dihydro-3-pyridinecarboxamide, which is compound 1 disclosed in U.S. Pat. No. 8,536,200 B2. BMS-777607 is a well known RON inhibitor.
After 72 hours, all of the medium was transferred to a 15 mL conical tube and washed once with 1×PBS (phosphate buffered saline), and then the cells were harvested. Thereafter, the supernatant was removed by centrifugation at 1,000 rpm for 3 minutes, and propidium iodide (PI) was diluted in a FACS (Fluorescence-Activated Cell Sorting) buffer (PBS+2% FBS) at a ratio of 1:1000. The prepared buffer was added adequately depending on the number of cells, and then it was transferred to a FACS tube and reacted for 10 minutes. Thereafter, it was measured using a cytometer (FACS Analyzer).

For test [2], the system named is pTyr-mRON. The experiment in a line: Protein expression change in tumor tissue of H417 transplanted animal model, immunochemical staining. It counts as in vivo. To be noted: H417 transplanted mouse model, 3 mpk, 10 mpk, 30 mpk, FIG. 3. The protocol:
(§1) WM-S1-030 synthesized in Example 1 above was administered at each concentration (3 mpk, 10 mpk, 30 mpk) to a mouse model transplanted with the H417 cell line, which is a small cell lung cancer cell line of a mutation RONΔ155 type, and then the tumor was extracted, and the expression changes of the proteins were analyzed by immunochemical staining.
(§2) Specifically, paraffin slides were prepared using tissues isolated from the sacrificed mice. The tissue sections were deparaffinized and rehydrated, immersed in the target recovery buffer 1×(ScyTek Laboratories, Cat #CBB999) and heated for 15 minutes to perform an antigen recovery process. After the reaction, the tissue sections were washed in Tris buffered saline-0.05% Tween 20 (TBS-T)(T&I, BTT-9310) for 5 minutes, and then the reaction was performed with a non-specific antibody reaction blocking reagent (vector, SP-5035) for 1 hour.
(§3) The tissue sections were cultured at 4° C. overnight with mRON (Abcam, ab52927, 1:50), pTyr-mRON (Mybioscience, MBS462024, 1:100), cleaved caspase-3 (Asp175XR&D Systems, MAB835, 1:50) and then washed with TBS-T for 5 minutes, and then endogenous peroxidase activity was blocked using a peroxidase blocking reagent (Cellmarque, 925B-05). Thereafter, the tissue sections were washed with TBS-T for 5 minutes and then incubated with a rabbit secondary antibody (vector, PK-6101) at room temperature for 1 hour. […]

Test [3] concerns cleaved caspase-3. Described as above. It counts as in vivo. Particulars: H417 transplanted mouse model, 3 mpk, 10 mpk, 30 mpk, FIG. 3. On the procedure:
as §1, §2, §3

The subject of test [4] is H417 cell line (mRONΔ155) transplanted tumor. Kind of test: Tumor growth inhibition in H417 cell line transplanted animal model. It counts as in vivo, mouse. To be noted: BALB/c-nude mice transplanted with H417, 30 mpk, oral, once a day for 3 weeks; FIG. 2. The protocol:
It was confirmed whether tumor growth was inhibited by administering WM-S1-030 synthesized in Example 1 above at a dose of 30 mpk to a mouse model transplanted with the H417 cell line, which is a small cell lung cancer cell line of a mutation RONΔ155 type. Specifically, 5-week-old female BALB/c-nude mice were purchased and acclimatized for 1 week. Thereafter, H417 (5×10^6 cells/mouse), a small cell lung cancer cell line of a mutation RONΔ155 type, was diluted in PBS (phosphate buffered saline), and 100 μL was injected subcutaneously into the right dorsal side of the mouse. When the size of the tumor reached about 100 mm^3, WM-S1-030 was orally administered. At this time, the group orally administered with the vehicle was used as a negative control. The drug was administered once a day for 3 weeks, and the tumor size and body weight were measured twice a week. After the drug administration was completed, the mice were euthanized, the tumor was extracted, and the weight was measured.

The structures appear in SMILES notation.

`CCOc1ccn(-c2ccc(F)cc2)c(=O)c1C(=O)Nc1ccc(Oc2ccnc(N)c2Cl)c(F)c1` [BMS-777607, N-{4-[(2-amino-3-chloro-4-pyridinyl)oxy]-3-fluorophenyl}-4-ethoxy-1-(4-fluorophenyl)-2-oxo-1,2-dihydro-3-pyridinecarboxamide]: in test [1], the “cell death (cell killing efficacy)” value is on record as “low”.

As for `CCOc1ccn(-c2ccc(F)cc2)c(=O)c1C(=O)Nc1ccc(Oc2ccnc3cc(-c4ccc(CN5CCOCC5)cn4)sc23)c(F)c1.Cl` [Example 1, 4-ethoxy-N-[3-fluoro-4-({2-[5-(morpholinomethyl)pyridin-2-yl]thieno[3,2-b]pyridin-7-yl}oxy)phenyl]-1-(4-fluorophenyl)-2-oxo-1,2-dihydropyridine-3-carboxamide hydrochloride], the “expression of pTyr-mRON” value in test [2] is given as “decreased”. Moreover, the “expression of cleaved caspase-3” value in test [3] is “induced”. In test [4], the tumor growth result is on record as “significantly inhibited”.

The values above are taken from patent US20230202992A1, “PHARMACEUTICAL COMPOSITION FOR PREVENTING OR TREATING SMALL-CELL LUNG CANCER ASSOCIATED WITH RON MUTANTS AND METHOD USING SAME” (WELLMARKER BIO CO., LTD., priority 2020, published 2023).
